According to the NIST ThermoML archive (doi:10.1021/je050514j):

Key:
[1] = refractive index (Na D-line) (dimensionless); settings: 298.15 K; 101.33 kPa; Liquid; Standard Abbe refractometry
[2] = xn = mol fraction of the nth substance listed; settings: 313.15 K, Fluid (supercritical or subcritical phases), x1 = 1

CCOC(C)=O [ethyl acetate]
Settings | refractive index
[1] | 1.3702

Settings | mass density [kg/m3]
298.15 K, 101.33 kPa, Liquid | 894.4
313.15 K, 1000 kPa, Fluid (supercritical or subcritical phases) | 876.9
313.15 K, 2000 kPa, Fluid (supercritical or subcritical phases) | 878
313.15 K, 3000 kPa, Fluid (supercritical or subcritical phases) | 878.9
313.15 K, 4000 kPa, Fluid (supercritical or subcritical phases) | 880
313.15 K, 5000 kPa, Fluid (supercritical or subcritical phases) | 881
313.15 K, 6000 kPa, Fluid (supercritical or subcritical phases) | 881.9
313.15 K, 7000 kPa, Fluid (supercritical or subcritical phases) | 882.9
313.15 K, 8000 kPa, Fluid (supercritical or subcritical phases) | 883.9
313.15 K, 9000 kPa, Fluid (supercritical or subcritical phases) | 884.9
313.15 K, 10000 kPa, Fluid (supercritical or subcritical phases) | 885.9

Settings | Normal boiling temperature [°C]
Liquid, ebulliometry | 77.06

O=C=O [carbon dioxide] + CCOC(C)=O
[2]
Settings | mass density [kg/m3]
1000 kPa | 17.8
2000 kPa | 37.3
3000 kPa | 58.6
4000 kPa | 83.4
5000 kPa | 112.5
6000 kPa | 148.7
7000 kPa | 197.5
8000 kPa | 276.7
9000 kPa | 482.6
10000 kPa | 627.3

O=C=O [carbon dioxide]
313.15 K, Fluid (supercritical or subcritical phases)
Settings | mass density [kg/m3]
1000 kPa | 17.8
2000 kPa | 37.3
3000 kPa | 58.6
4000 kPa | 83.4
5000 kPa | 112.5
6000 kPa | 148.7
7000 kPa | 197.5
8000 kPa | 276.7
9000 kPa | 482.6
10000 kPa | 627.3
